Data reported in ChEMBL document CHEMBL6134780, “Halogenated retinoid derivatives as dual RARα and RXRα modulators for treating acute promyelocytic leukemia cells” (Eur J Med Chem, 2024).
Calls of active or inactive are those of the source. No cut-off for these calls is given here.

What was measured:
[1] = Cell cycle arrest in human ATRA-resistant NB4-LR2 cells assessed as accumulation of cells at sub-G1 phase at 1 uM incubated for 12 hrs by DAPI staining based flow cytometric analysis (reference value: 18 %); type: functional
NB-4 [2] = assay: Induction of cell differentiation in human NB4 cells at 0.5 uM incubated for 4 to 6 days by CD11b staining based flow cytometric analysis; type: functional; conditions: time 4-6 day
[3] = Induction of apoptosis in human ATRA-resistant NB4-LR2 cells assessed as early apoptotic cells at 1 uM incubated for 24 hrs by Annexin V-FITC/PI staining based flow cytometric analysis (reference value: 5.38 %); type: functional
K562 [4] = assay: Induction of apoptosis in human K562 cells assessed as early apoptotic cells at 2 uM incubated for 24 hrs by Annexin V-FITC/PI staining based flow cytometric analysis (reference value: 0.91 %); type: functional
[5] = target: T1, Retinoic acid receptor gamma (Homo sapiens) (UniProt P13631); assay: Agonist activity at Gal4-fused full length human RARgamma LBD transfected in HEK293T cells co-transfected with pG5luc reporter and Renilla-luc assessed as transactivation by measuring maximal efficacy incubated for 12 hrs by dual luciferase reporter gene assay relative to control; type: cell-based; conditions: filed as agonist
T1 sequence (whole entry): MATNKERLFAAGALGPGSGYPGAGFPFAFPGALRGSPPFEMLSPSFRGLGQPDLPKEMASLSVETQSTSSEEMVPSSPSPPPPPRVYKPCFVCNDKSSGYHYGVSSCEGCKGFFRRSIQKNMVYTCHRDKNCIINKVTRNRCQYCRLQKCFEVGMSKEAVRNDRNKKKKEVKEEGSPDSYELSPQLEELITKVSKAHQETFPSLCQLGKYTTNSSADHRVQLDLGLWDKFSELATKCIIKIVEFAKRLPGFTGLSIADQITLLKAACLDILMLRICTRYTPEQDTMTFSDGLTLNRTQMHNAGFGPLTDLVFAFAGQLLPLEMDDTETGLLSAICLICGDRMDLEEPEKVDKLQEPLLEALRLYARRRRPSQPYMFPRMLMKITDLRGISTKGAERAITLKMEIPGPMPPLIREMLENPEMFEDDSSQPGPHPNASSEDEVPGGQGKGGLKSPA

ATRA-resistant NB4-LR2 = assay: Antiproliferative activity against human ATRA-resistant NB4-LR2 cells assessed as effect on cell viability up to 2 uM incubated for 3 days by CCK8 assay; type: functional, cell-based; conditions: time 3.0 day
NB-4 [6] = assay: Cell cycle arrest in human NB4 cells assessed as accumulation of cells at G0/G1 phase at 1 uM incubated for 12 hrs by DAPI staining based flow cytometric analysis (reference value: 51 %); type: functional
NB-4 [7] = assay: Induction of cell differentiation in human NB4 cells assessed as NBT positive cells at 0.5 uM incubated for 6 days by Nitro Blue tetrazolium chloride based microscopic analysis (reference value: 0 %); type: functional; conditions: time 6 day
[8] = Induction of apoptosis in human ATRA-resistant NB4-LR2 cells assessed as necrotic cells at 1 uM incubated for 24 hrs by Annexin V-FITC/PI staining based flow cytometric analysis (reference value: 0.08 %); type: functional
NB-4 [9] = assay: Cell cycle arrest in human NB4 cells assessed as accumulation of cells at S phase at 0.5 uM incubated for 6 days for DAPI staining based flow cytometric analysis (reference value: 27 %); type: functional; conditions: time 6 day
Homo sapiens = species on record: Homo sapiens; assay: Binding affinity to N-terminal His-tagged human RARalpha LBD R276E mutant extracted from Escherichia coli BL21 (DE3) cells by ITC analysis
NB-4 [10] = assay: Cell cycle arrest in human NB4 cells assessed as accumulation of cells at sub-G1 phase at 0.5 uM incubated for 6 days for DAPI staining based flow cytometric analysis (reference value: 6 %); type: functional; conditions: time 6 day
K562 [11] = assay: Induction of apoptosis in human K562 cells assessed as late apoptotic cells at 2 uM incubated for 24 hrs by Annexin V-FITC/PI staining based flow cytometric analysis (reference value: 5.98 %); type: functional
NB-4 [12] = assay: Induction of apoptosis in human NB4 cells assessed as early apoptotic cells at 1 uM incubated for 24 hrs by Annexin V-FITC/PI staining based flow cytometric analysis (reference value: 4.37 %); type: functional
[13] = Cell cycle arrest in human ATRA-resistant NB4-LR2 cells assessed as accumulation of cells at S phase at 1 uM incubated for 12 hrs by DAPI staining based flow cytometric analysis (reference value: 12 %); type: functional
K562 [14] = assay: Induction of cell differentiation in human K562 cells at 0.5 uM incubated for 6 days by CD11b staining based flow cytometric analysis; type: functional; conditions: time 6.0 day
[15] = Cell cycle arrest in human ATRA-resistant NB4-LR2 cells assessed as accumulation of cells at G0/G1 phase at 1 uM incubated for 12 hrs by DAPI staining based flow cytometric analysis (reference value: 42 %); type: functional
HEK293T = assay: Agonist activity at full length RARalpha LBD R276E mutant (unknown origin) transfected in HEK293T cells co-transfected with pG5luc reporter and Renilla-luc at 1 uM incubated for 12 hrs by luciferase reporter gene assay; type: cell-based; conditions: Homo sapiens, filed as agonist
NB-4 [16] = assay: Cell cycle arrest in human NB4 cells assessed as accumulation of cells at G0/G1 phase at 0.5 uM incubated for 6 days for DAPI staining based flow cytometric analysis (reference value: 52 %); type: functional; conditions: time 6 day
NB-4 [17] = assay: Induction of cell death in M phase synchronized human NB4 cells assessed as reduction in mitotic cells at 0.5 uM preincubated for 4 days followed by release from thymidine block for 10 hrs by immunofluorescence staining based analysis; type: functional; conditions: time 106.0 hrs
NB-4 [18] = assay: Cell cycle arrest in human NB4 cells assessed as accumulation of cells at G2/M phase at 0.5 uM incubated for 6 days for DAPI staining based flow cytometric analysis (reference value: 15 %); type: functional; conditions: time 6 day
NB-4 [19] = assay: Induction of apoptosis in human NB4 cells assessed as viable cells at 1 uM incubated for 24 hrs by Annexin V-FITC/PI staining based flow cytometric analysis (reference value: 92.36 %); type: functional; conditions: read-out: Activity
K562 [20] = assay: Induction of apoptosis in human K562 cells assessed as necrotic cells at 2 uM incubated for 24 hrs by Annexin V-FITC/PI staining based flow cytometric analysis (reference value: 2.19 %); type: functional
NB-4 [21] = assay: Antiproliferative activity against human NB4 cells assessed as inhibition of cell viability at 0.1 uM incubated for 3 days by CCK8 assay relative to control; type: functional; conditions: NB-4, 72 h, time 3 day
NB-4 [22] = assay: Cell cycle arrest in human NB4 cells assessed as accumulation of cells at sub-G1 phase at 1 uM incubated for 12 hrs by DAPI staining based flow cytometric analysis (reference value: 2 %); type: functional
Jurkat = assay: Induction of cell differentiation in human Jurkat cells at 0.5 uM incubated for 6 days by CD11b staining based flow cytometric analysis; type: functional; conditions: time 6.0 day
NB-4 [23] = assay: Induction of apoptosis in human NB4 cells assessed as late apoptotic cells at 1 uM incubated for 24 hrs by Annexin V-FITC/PI staining based flow cytometric analysis (reference value: 3.20 %); type: functional
[24] = Cell cycle arrest in human ATRA-resistant NB4-LR2 cells assessed as accumulation of cells at G2/M phase at 1 uM incubated for 12 hrs by DAPI staining based flow cytometric analysis (reference value: 28 %); type: functional
NB-4 [25] = assay: Cell cycle arrest in human NB4 cells assessed as accumulation of cells at G2/M phase at 1 uM incubated for 12 hrs by DAPI staining based flow cytometric analysis (reference value: 26 %); type: functional
[26] = Induction of apoptosis in human ATRA-resistant NB4-LR2 cells assessed as viable cells at 1 uM incubated for 24 hrs by Annexin V-FITC/PI staining based flow cytometric analysis (reference value: 87.30 %); type: functional; conditions: read-out: Activity
[27] = Induction of apoptosis in human ATRA-resistant NB4-LR2 cells assessed as late apoptotic cells at 1 uM incubated for 24 hrs by Annexin V-FITC/PI staining based flow cytometric analysis (reference value: 7.23 %); type: functional
K562 [28] = assay: Induction of apoptosis in human K562 cells assessed as viable cells at 2 uM incubated for 24 hrs by Annexin V-FITC/PI staining based flow cytometric analysis (reference value: 90.02 %); type: functional; conditions: read-out: Activity
NB-4 [29] = assay: Induction of apoptosis in human NB4 cells assessed as necrotic cells at 1 uM incubated for 24 hrs by Annexin V-FITC/PI staining based flow cytometric analysis (reference value: 0.07 %); type: functional
K562 [30] = assay: Effect on cell cycle population in human K562 cells at 0.5 uM by DAPI staining based flow cytometric analysis; type: functional
NB-4 [31] = assay: Cell cycle arrest in human NB4 cells assessed as accumulation of cells at S phase at 1 uM incubated for 12 hrs by DAPI staining based flow cytometric analysis (reference value: 20 %); type: functional

## CC1=C(/C=C/C(C)=C/C=C/C(C)=C/C(=O)O)C(C)(C)CCC1 [TRETINOIN]
[1]
  Activity: 19%
NB-4 [2]
  Activity: Active
[3]
  Activity: 3.39%
K562 [4]
  Activity: 1.04%
[5]
  Emax: 100%
ATRA-resistant NB4-LR2
  Activity: inactive
NB-4 [6]
  Activity: 65%
NB-4 [7]
  Activity: 33%
[8]
  Activity: 0.08%
NB-4 [9]
  Activity: 17%
Homo sapiens
  Activity: inactive
NB-4 [10]
  Activity: 3%
K562 [11]
  Activity: 6.84%
NB-4 [12]
  Activity: 3.11%
[13]
  Activity: 11%
K562 [14]
  Activity: inactive
[15]
  Activity: 43%
HEK293T
  Activity: Active; Partial Impairment Observed
NB-4 [16]
  Activity: 64%
NB-4 [17]
  Activity: Active
NB-4 [18]
  Activity: 16%
NB-4 [19]
  viability at 1 µM: 90.4%
K562 [20]
  Activity: 2.01%
NB-4 [21]
  inhibition at 0.1 µM: ~40%
NB-4 [22]
  Activity: 2%
Jurkat
  Activity: inactive
NB-4 [23]
  Activity: 6.37%
[24]
  Activity: 27%
NB-4 [25]
  Activity: 23%
[26]
  viability at 1 µM: 88.6%
[27]
  Activity: 7.92%
K562 [28]
  viability at 2 µM: 89.5%
NB-4 [29]
  Activity: 0.13%
K562 [30]
  Activity: inactive
NB-4 [31]
  Activity: 10%
